Data from ChEMBL document CHEMBL1159216, “Imperanene, a novel phenolic compound with platelet aggregation inhibitory activity from Imperata cylindrica” (J Nat Prod, 1995).
Calls of active or inactive are those of the source. The rule behind the calls is not given here.

System: Platelet
Test: Antiplatelet activity in Japanese white rabbit platelet assessed as inhibition of thrombin-induced platelet aggregation at 600 uM preincubated 5 mins before thrombin challenge
Format: functional, cell-based
Conditions: Oryctolagus cuniculus

COc1cc(/C=C/[C@@H](CO)Cc2ccc(O)c(OC)c2)ccc1O
Activity: Active
